Literature values as cited in patent US20220257614A1, “USE OF 12-LIPOXYGENASE INHIBITORS IN THE TREATMENT OF COVID-19” (New York Medical College, priority 2021, published 2022).

System: human islets
Settings: in vitro; background statement

COc1cccc(CNc2ccc(S(=O)(=O)Nc3nc4ccccc4s3)cc2)c1O [ML-355]
protection of human islets from inflammatory injury: protect human islets from inflammatory injury
